Values after ≈ are worked out from the molar mass of the structure shown.
Legend:
Format in all cases: functional
[1] = test system: Staphylococcus aureus; assay: Antibacterial activity against Staphylococcus aureus 209P JC1 by agar dilution method
[2] = test system: Staphylococcus aureus; assay: Antibacterial activity against methicillin-resistant Staphylococcus aureus M126 by agar dilution method
[3] = test system: Staphylococcus aureus; assay: Antibacterial activity against carbapenem and methicillin-resistant Staphylococcus aureus M126HR by agar dilution method
[4] = test system: Streptococcus pneumoniae; assay: Antibacterial activity against penicillin-resistant Streptococcus pneumoniae KK133 by agar dilution method
[5] = test system: Escherichia coli; assay: Antibacterial activity against Escherichia coli NIHJ JC2 by agar dilution method
[6] = test system: Klebsiella pneumoniae; assay: Antibacterial activity against Klebsiella pneumoniae GN69 by agar dilution method
[7] = test system: Moraxella catarrhalis; assay: Antibacterial activity against Moraxella catarrhalis W-0500 by agar dilution method
[8] = test system: Haemophilus influenzae; assay: Antibacterial activity against beta-lactamase-negative ampicillin-resistant Haemophilus influenzae 870 by agar dilution method

Compound `CSc1nc(C(=O)c2ccc[n+](CC(N)=O)c2)c2sc(C3=C(C(=O)[O-])N4C(=O)[C@H]([C@@H](C)O)[C@H]4[C@H]3C)cn12` has an MIC [1] of 0.008 mg/L (≈ 0.0148 µM), an MIC [2] of 0.5 mg/L (≈ 0.923 µM) and an MIC [3] of 1 mg/L (≈ 1.85 µM). For the same compound, the MIC [4] was 0.016 mg/L (≈ 0.0295 µM), the MIC [5] was 4 mg/L (≈ 7.39 µM) and the MIC [6] was 4 mg/L (≈ 7.39 µM). For the same compound, the MIC [7] was 0.016 mg/L (≈ 0.0295 µM) and the MIC [8] was 0.031 mg/L (≈ 0.0572 µM).

From ChEMBL document CHEMBL1144513, “Synthesis and SAR study of novel 7-(pyridinium-3-yl)-carbonyl imidazo[5,1-b]thiazol-2-yl carbapenems” (2007)
